The values that follow come from patent US20260083864A1, “CONTRAST AGENTS FOR USE IN DIAGNOSTIC COMPUTED TOMOGRAPHY IMAGING” (Bayer Aktiengesellschaft, priority 2022, published 2026).

A short description of data set [1]: Water solubility in aqueous buffer. The conditions noted are these: aqueous buffer 10 mM Tris-HCl, pH 7.4, 20° C. The method, then: The solid compounds were added stepwise to the buffer solution. More substance is added once all the suspended material is dissolved until an equilibrium between undissolved and dissolved substance is reached. The suspension was mixed using a shaker (Heidolph Reax 2000) and treated 5 min in an ultrasound bath (Bandelin, Sonorex Super RK255H).

The nature of data set [2]: Complex stability (transmetallation) against Zn2+ in phosphate buffer. Conditions: 72 hours, 2.5 mM Zn^2+, 26 mM phosphate buffer, 37° C., pH 7.4. An excerpt:
If test compounds are instable under these conditions, transmetallation during this test would lead to the formation of the Zn^2+ complex of the test item, while Gd^3+ is released and precipitated as highly insoluble GdPO4.

Data set [3] can be described thus: Relaxivity measurements at 1.41 T in water. The data set is classed as physicochemical. Conditions: 37° C., normalized to Gd. The method, boiled down:
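T1 by inversion recovery and T2 by CPMG at 1.41 T (60 MHz), 37° C, relaxation delay ≥5×T1. Three Gd concentrations between 0.05 and 2 mM; relaxivities derived from measured relaxation rates in water.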

The nature of data set [4]: Relaxivity measurements at 1.41 T in human plasma. The data set is classed as physicochemical. Conditions: 37° C., normalized to Gd. Summed up:
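T1 determined by inversion recovery (8 inversion-time steps) and T2 by CPMG sequence, both with relaxation delay ≥5×T1. Each relaxivity used three Gd concentrations between 0.05 and 2 mM. Relaxivities were derived from relaxation rates measured in water and plasma.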

In data set [5] the target is T1, OATP1B1 (Homo sapiens, UniProt Q9Y6L6).
T1 sequence (Q9Y6L6 1-691): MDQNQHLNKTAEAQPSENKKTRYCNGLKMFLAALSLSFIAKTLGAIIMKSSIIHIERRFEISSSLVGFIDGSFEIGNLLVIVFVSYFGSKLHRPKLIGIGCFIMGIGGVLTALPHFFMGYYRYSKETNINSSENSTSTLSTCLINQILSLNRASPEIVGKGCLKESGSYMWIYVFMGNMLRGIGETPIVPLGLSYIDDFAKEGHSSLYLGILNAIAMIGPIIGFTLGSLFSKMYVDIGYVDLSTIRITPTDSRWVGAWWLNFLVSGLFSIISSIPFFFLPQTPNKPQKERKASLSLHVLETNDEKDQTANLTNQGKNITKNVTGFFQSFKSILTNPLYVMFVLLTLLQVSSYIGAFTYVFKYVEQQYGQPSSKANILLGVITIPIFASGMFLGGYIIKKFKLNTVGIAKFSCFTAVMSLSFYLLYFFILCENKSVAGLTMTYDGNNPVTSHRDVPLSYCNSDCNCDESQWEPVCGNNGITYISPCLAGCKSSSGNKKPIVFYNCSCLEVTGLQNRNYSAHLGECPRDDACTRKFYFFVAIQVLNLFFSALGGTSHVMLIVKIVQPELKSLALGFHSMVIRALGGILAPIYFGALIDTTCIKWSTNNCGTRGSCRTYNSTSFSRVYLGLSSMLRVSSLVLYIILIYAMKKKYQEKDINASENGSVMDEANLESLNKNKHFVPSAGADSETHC
In words: Uptake into stable transfected OATP1B1 HEK 293 cells. The data set is classed as cell-based. Conditions: for Inhibition Rifampicine: uptake into OATP1B1-HEK 293 cells; for Uptake into OATP1B1-HEK 293 cells: 40 min incubation, relative to RC1 (Gd-EOB-DTPA). The method, boiled down:
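Uptake measured in triplicate after a 40 min, unshaken exposure of OATP1B1-expressing HEK293 cells to 100 µM (final) compound in transport buffer. Cold PBS wash stopped uptake; Gd-EOB-DTPA served as reference standard within each plate.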

The target in data set [6] is T2, OATP1B3 (Homo sapiens, UniProt Q9NPD5).
T2 sequence (Q9NPD5 1-702): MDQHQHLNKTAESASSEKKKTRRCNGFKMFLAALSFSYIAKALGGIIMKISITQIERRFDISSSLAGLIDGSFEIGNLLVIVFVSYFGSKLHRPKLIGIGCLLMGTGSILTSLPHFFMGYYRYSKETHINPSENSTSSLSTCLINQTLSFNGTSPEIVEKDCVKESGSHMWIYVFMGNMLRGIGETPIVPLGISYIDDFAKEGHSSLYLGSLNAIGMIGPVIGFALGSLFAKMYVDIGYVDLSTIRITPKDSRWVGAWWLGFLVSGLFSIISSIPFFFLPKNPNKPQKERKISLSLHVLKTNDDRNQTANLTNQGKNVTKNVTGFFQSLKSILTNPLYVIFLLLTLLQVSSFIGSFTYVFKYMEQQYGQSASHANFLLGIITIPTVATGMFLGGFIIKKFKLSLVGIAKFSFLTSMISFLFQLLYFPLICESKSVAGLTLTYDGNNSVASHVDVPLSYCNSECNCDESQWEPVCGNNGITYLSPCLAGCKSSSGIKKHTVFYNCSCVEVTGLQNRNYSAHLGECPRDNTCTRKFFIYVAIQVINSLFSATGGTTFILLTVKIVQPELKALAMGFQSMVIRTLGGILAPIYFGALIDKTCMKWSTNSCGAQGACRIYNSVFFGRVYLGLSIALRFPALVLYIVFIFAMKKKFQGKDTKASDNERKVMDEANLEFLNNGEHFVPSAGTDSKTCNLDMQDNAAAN
In words: Uptake into stable transfected OATP1B3 HEK 293 cells. The data set is classed as cell-based. The conditions noted are these: for Inhibition Rifampicine: uptake into OATP1B3-HEK 293 cells; for Uptake into OATP1B3-HEK 293 cells: 40 min incubation, relative to RC1 (Gd-EOB-DTPA). The method, boiled down:
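HEK 293 cells stably transfected with human OATP1B3 were incubated for 40 min with test items at 100 μM final in transport buffer, in triplicate, then washed with cold PBS. Gadoxetate (Gd-EOB-DTPA) served as the reference standard on the same plate.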

For data set [7], the system named is freshly isolated rat hepatocytes. Nature of the data set: Uptake into freshly isolated rat hepatocytes. Conditions: for Uptake rat hepatocytes: 100 μmol Gd/L, 10 min, 37° C., relative to RC1 (Gd-EOB-DTPA); for Inhibition Rifampicine: rat hepatocyte uptake, test item and Rifampicine 1:1, each 100 μM.
Data set [8] in a line: Partition coefficient (log P butanol/buffer). The data set is classed as physicochemical. Conditions: 1-butanol / 50 mM Tris-HCl, pH 7.4, room temperature.

What is called Solubility is how much of the substance goes into solution per volume. A high value points to a readily soluble substance. For `CCOCCOCCOc1ccc(CCCC(C(=O)O)N2CCN(C(CO)C(=O)[O-])CCN(C(CO)C(=O)[O-])CCN(C(CO)C(=O)[O-])CC2)cc1.[Gd+3]` (stereo not shown) [Example 17, gadolinium-2,2′,2″-{10-[1-carboxy-4-{4-[2-(2-ethoxyethoxy)ethoxy]phenyl}butyl]-1,4,7,10-tetraazacyclododecane-1,4,7-triyl}tris(3-hydroxypropanoate)], the Solubility in data set [1] was greater than 217 mM. In data set [2], this compound showed a Transmetallation stability of 98%. The compound also had a r1 water in data set [3] of 5.3 L/mmol/s. This compound also showed a r1 human plasma in data set [4] of 10.1 L/mmol/s. The “Inhibition Rifampicine” value in data set [5] worked out at 88 % inhibition; in data set [6], 98 % inhibition; in data set [7] it was 91 % inhibition. Also, the Uptake rat hepatocytes in data set [7] is 71 % of RC1.

The compound `CCOCCOc1ccc(CC(C(=O)O)N2CCN(CC(=O)[O-])CCN(CC(=O)[O-])CCN(CC(=O)[O-])CC2)cc1.[Gd+3]` (stereo not shown) [Example 32, gadolinium 2,2′,2″-(10-{1-carboxy-2-[4-(2-ethoxyethoxy)phenyl]ethyl}-1,4,7,10-tetraazacyclododecane-1,4,7-triyl)triacetate] came in with a Solubility in data set [1] greater than 198 mM. Also, the r1 water in data set [3] amounted to 4.1 L/mmol/s. In addition, the r1 human plasma in data set [4] is 6.6 L/mmol/s. Besides, in data set [5], the “Uptake into OATP1B1-HEK 293 cells” value is given as 147 % of RC1 and the “Inhibition Rifampicine” value is listed as 72 % inhibition. In data set [6], the “Uptake into OATP1B3-HEK 293 cells” value was 22 % of RC1 and the “Inhibition Rifampicine” value is recorded as 94 % inhibition. Besides, the “Log P (partition coefficient butanol/buffer)” value in data set [8] is listed as −1.53. Moreover, in data set [7], the Uptake rat hepatocytes was 54 % of RC1 and the “Inhibition Rifampicine” value is listed as 93 % inhibition.

`CCOCCOCCOc1cc(CC(C(=O)O)N2CCN(CC(=O)[O-])CCN(CC(=O)[O-])CCN(CC(=O)[O-])CC2)cc(OCCOCCOCC)c1.[Gd+3]` (stereo not shown) [Example 39, gadolinium 2,2′,2″-{10-[2-{3,5-bis[2-(2-ethoxyethoxy)ethoxy]phenyl}-1-carboxyethyl]-1,4,7,10-tetraazacyclododecane-1,4,7-triyl}triacetate]: in data set [1], the Solubility was greater than 255 mM. Besides, the r1 water in data set [3] is 4.8 L/mmol/s. Further, in data set [4], the r1 human plasma was 7.8 L/mmol/s. In addition, in data set [5], the “Uptake into OATP1B1-HEK 293 cells” value is listed as 59 % of RC1 and the “Inhibition Rifampicine” value was 12 % inhibition. In data set [6], the “Uptake into OATP1B3-HEK 293 cells” value is on record as 26 % of RC1 and the “Inhibition Rifampicine” value was 88 % inhibition. Further, the “Log P (partition coefficient butanol/buffer)” value in data set [8] is recorded as −1.32. Moreover, in data set [7], the Uptake rat hepatocytes is on record as 17 % of RC1 and the “Inhibition Rifampicine” value worked out at 64 % inhibition.

In data set [1], `CCOCCOCCOc1ccc(CC(C(=O)O)N2CCN(CC(=O)[O-])CCN(C(CO)C(=O)[O-])CCN(CC(=O)[O-])CC2)cc1.[Gd+3]` (stereo not shown) [Example 41, gadolinium-2-{7-[1-carboxy-2-{4-[2-(2-ethoxyethoxy)ethoxy]phenyl}ethyl]-4,10-bis(carboxylatomethyl)-1,4,7,10-tetraazacyclododecan-1-yl}-3-hydroxypropanoate] yielded a Solubility greater than 13 mM. In data set [3], this compound registered a r1 water of 4.5 L/mmol/s. Further, in data set [4], the r1 human plasma was found to be 5.7 L/mmol/s. Further, in data set [5], the “Uptake into OATP1B1-HEK 293 cells” value is 218 % of RC1 and the “Inhibition Rifampicine” value is recorded as 30 % inhibition. Also, in data set [6], the “Uptake into OATP1B3-HEK 293 cells” value is 47 % of RC1 and the “Inhibition Rifampicine” value came to 74 % inhibition. For the same compound, the “Log P (partition coefficient butanol/buffer)” value in data set [8] was −1.61. Further, in data set [7], the Uptake rat hepatocytes is listed as 52 % of RC1 and the “Inhibition Rifampicine” value came out at 56 % inhibition.

Turning to `CCOCCOCCOCCOc1ccc(CC(C(=O)O)N2CCN(CC(=O)[O-])CCN(C(CO)C(=O)[O-])CCN(CC(=O)[O-])CC2)cc1.[Gd+3]` (stereo not shown) [Example 42, gadolinium-2-{7-[1-carboxy-2-(4-{2-[2-(2-ethoxyethoxy)ethoxy]ethoxy}phenyl)ethyl]-4,10-bis(carboxylatomethyl)-1,4,7,10-tetraazacyclododecan-1-yl}-3-hydroxypropanoate], the Solubility in data set [1] was greater than 81 mM. The compound also returned a r1 water in data set [3] of 5.0 L/mmol/s. Further, in data set [4], the r1 human plasma amounted to 7.2 L/mmol/s. For the same compound, in data set [5], the “Uptake into OATP1B1-HEK 293 cells” value was 89 % of RC1 and the “Inhibition Rifampicine” value amounted to 62 % inhibition. For the same compound, in data set [6], the “Uptake into OATP1B3-HEK 293 cells” value is 20 % of RC1 and the “Inhibition Rifampicine” value came to 91 % inhibition. Moreover, the “Log P (partition coefficient butanol/buffer)” value in data set [8] is −1.60. Besides, in data set [7], the Uptake rat hepatocytes was 44 % of RC1 and the “Inhibition Rifampicine” value is reported as 95 % inhibition.

Take `O=C([O-])CN1CCN(CC(=O)[O-])CCN([C@H](Cc2ccc(OCC(F)(F)F)cc2)C(=O)O)CCN(CC(=O)[O-])CC1.[Gd+3]` [Example 47, gadolinium 2,2′,2″-(10-{(1R)-1-carboxy-2-[4-(2,2,2-trifluoroethoxy)phenyl]ethyl}-1,4,7,10-tetraazacyclododecane-1,4,7-triyl)triacetate]: in data set [1], the Solubility is greater than 229 mM. Moreover, in data set [3], the r1 water was 3.7 L/mmol/s. The compound also yielded a r1 human plasma in data set [4] of 7.8 L/mmol/s. For the same compound, in data set [5], the “Uptake into OATP1B1-HEK 293 cells” value was 13 % of RC1 and the “Inhibition Rifampicine” value was determined as 93 % inhibition. Moreover, in data set [6], the “Uptake into OATP1B3-HEK 293 cells” value is 19 % of RC1 and the “Inhibition Rifampicine” value is 90 % inhibition. Moreover, in data set [8], the “Log P (partition coefficient butanol/buffer)” value is −0.77. In data set [7], the Uptake rat hepatocytes is on record as 55 % of RC1 and the “Inhibition Rifampicine” value is given as 82 % inhibition.
